Patent US20040009194A1, “Methods, and compositions for a therapeutic antigen presenting cell vaccine for treatment of immunodeficiency virus” (priority 2002, published 2004)

What was measured:
autologous PBL = assay: Proliferation of patient T cells stimulated with inactivated-virus-pulsed autologous DC ([methyl-3H]thymidine incorporation); format: cell-based, human; details: indinavir 10 nM (nonantiviral concentration); P<0.001
Source text: To mimic the antigen capture by DC in peripheral tissues, immature DC (i.e., competent in antigen capture) generated by culturing patient blood monocytes with GM-CSF and IL-4 for 5 days were pulsed with autologous viral isolates inactivated by 2,2′ dithiodipyridine or aldrithiol-2 (AT-2), which preserves the intact native conformation and fusogenic activity of HIV Env protein. As will be appreciated by those skilled in the art, there are a number of mechanisms suitable to inactivate a virus, and any of these methods can be used so long as the method preserves the intact native conformation and fusogenic activity of HIV Env protein. To model the presentation of antigens in lymphoid tissue, virus-pulsed DC were matured in the presence of TNF-α and IFN-α for an additional 3 days to maximize their T-cell-stimulatory activity. Matured virus-pulsed DC was then used to stimulate autologous PBL at a stimulator/responder ratio of 1:3 in the absence or presence of PI at a nonantiviral concentration (10 nM indinavir). By day 7 of coculture, PBL were restimulated with the same virus-pulsed DC for an additional 7 days. At day 14, proliferation was measured by incubating PBL with virus-pulsed DC at stimulator/responder ratios of 1:3 to 1:100. […] HIV-1 gag-specific CTL activity following stimulation with virus-pulsed autologous DC.

[1] = system: autologous B-LCL infected by recombinant vaccinia virus containing a gag gene of HIV-1; format: cell-based, human

CC(C)(C)NC(=O)[C@@H]1CN(Cc2cccnc2)CCN1C[C@@H](O)C[C@@H](Cc1ccccc1)C(=O)N[C@H]1c2ccccc2C[C@H]1O [indinavir]
effect of PI on DC-mediated T-cell proliferation (autologous PBL): significantly enhanced
effect of indinavir on gag-specific CTL activity [1]: significantly enhanced
